These results are taken from article PMC7344389, “Discovery of Anti-Amoebic Inhibitors from Screening the MMV Pandemic Response Box on Balamuthia mandrillaris, Naegleria fowleri, and Acanthamoeba castellanii” (Pathogens, 2020).

Read-outs that look alike come from different tables or passages of the source.

Assay [1] deals with Naegleria fowleri trophozoites. The experiment in a line: CellTiter-Glo 2.0 trophocidal assay, N. fowleri. In kind it is cell-based. Conditions: for IC50: CTG method, 72 h, duplicate twofold serial dilutions from 10 µM, mean ± SD, read-out: N. fowleri Mean IC50 (µM) ± SD; for Selectivity Index (A549 IC50/N. fowleri IC50): SI = (IC50 A549)/(IC50 Amoeba); for potency against N. fowleri, in words: dose-response, CTG. The protocol:
Pathogenic Naegleria fowleri (ATCC 30215), a clinical isolate obtained from a child in Adelaide, Australia, that died of PAM in 1969 was previously purchased from the American Type Culture Collection (ATCC). Trophozoites were routinely grown axenically at 34 °C in Nelson’s complete medium (NCM) in non-vented 75 cm^2 tissue culture flasks (Olympus, El Cajon, CA, USA), until the cells were 80–90% confluent. For sub-culturing, cells were placed on ice to detach the cells from the culture flasks. The cells were collected by centrifugation at 4000 rpm at 4 °C. Complete NCM media is produced by the addition of 10% FBS and 125 μg of penicillin/streptomycin antibiotics.
The trophocidal activity of compounds was assessed using the CellTiter-Glo 2.0 luminescent viability assay (Promega, Madison, WI, USA), as previously described. Trophozoites were routinely cultured as described above and only logarithmic trophozoites were used. In brief, B. mandrillaris, N. fowleri, or A. castellanii trophozoites cultured in their corresponding media were seeded at 16,000, 3000, or 1440 cells/well into white 96-well plates (Costar 3370), respectively. Initially all compounds were assessed in a single-point drug screen at 10 and 1 μM, as previously described. […] Control wells were supplemented with 0.1% (10 μM screening plate) or 0.01% (1 μM screening plate) DMSO, as the negative controls, or 12.5 μM of chlorhexidine, as the positive control. Following the single-point assays at 10 and 1 µM, we prioritized compounds for progression to IC50 determinations. […] We used this process to reduce the number of potential false positives. Drugs were cherry-picked, dissolved in the media specific to each parasite, and assessed in twofold serial dilutions from the highest concentration of 10 μM. All assays were incubated at each of the parasites’ representative growth temperatures, described above, for 72 h. At the 72 h time point, 25 μL of CellTiter-Glo 2.0 reagent was added to all wells of the 96-well plates using the Biomek NX^P automated workstation. The plates were protected from light and contents were mixed using an orbital shaker at 300 rpm at room temperature for 2 min to induce cell lysis. After shaking, the plates were equilibrated at room temperature for 10 min to stabilize the luminescent signal. The adenosine triphosphate (ATP) luminescent signal (relative light units; RLUs) was measured at 490 nm with a SpectraMax I3X plate reader (Molecular Devices, Sunnyvale, CA, USA). Drug inhibitory concentration (IC50) curves were generated using total ATP RLUs, where controls were calculated as the average of replicates using the Levenberg–Marquardt algorithm, using DMSO as the normalization control, as defined in Collaborative Drug Discovery Inc. (CDD) Vault (Burlingame, CA, USA). Values reported are from a minimum of two biological replicates with standard deviations.
A general note: In ATP-based viability assays light output follows the ATP content of the culture.

Assay [2] deals with A549 human lung carcinoma cells. Nature of the assay: MTS cytotoxicity counter-screen of reconfirmed hits. Format: cell-based. The following applies: Homo sapiens. (A counterscreen serves to expose hits that act by an unwanted route or on another target.)
[3] abbreviates: A549, MTS assay, 72 h, doubling dilutions from 10 µM, read-out: A549 Mean IC50.

The IC50 is the concentration that gives 50% inhibition. As to `CN(Cc1ccc(C(C)(C)C)cc1)Cc1cccc2ccccc12` [Butenafine], the figures for the IC50 in assay [1] (listed as butenafine), in assay [1] and in assay [2] (setting [3]) were no more than 10 µM, 1.05 ± 0.35 µM and greater than 10 µM, respectively. Also, in assay [1], the “Selectivity Index (A549 IC50/N. fowleri IC50)” value (“Selectivity Index” below) is reported as no less than 9.52.

As for `CC(=O)Oc1ccccc1C(=O)Nc1ncc([N+](=O)[O-])s1` [Nitazoxanide], the values for the IC50 in assay [1] (Naegleria fowleri) and in assay [2] (setting [3]) were 3.6 µM and greater than 10 µM, respectively. Moreover, the “Selectivity Index” value in assay [1] is no less than 2.78.

As to `Cc1[nH]c2ccccc2c1CCNCc1ccc(/C=C/C(=O)NO)cc1` [Panobinostat], the IC50 in assay [1] (Naegleria fowleri) amounted to 0.22 ± 0.06 µM. Besides, in assay [1], the “Selectivity Index” value is recorded as less than 1.44 and the “potency against N. fowleri, in words” value is “nanomolar potency”. Further, the IC50 in assay [2] (setting [3]) was less than 0.31 µM.

Regarding `C[C@@H](c1nc(-c2ccc(C#N)cc2)cs1)[C@](O)(Cn1cncn1)c1ccc(F)cc1F` [Ravuconazole], the IC50 in assay [1] (Naegleria fowleri) was 0.05 ± 0.02 µM; in assay [2] (setting [3]), greater than 10 µM. In addition, in assay [1] (listed as ravuconazole), the “Selectivity Index” value is given as no less than 10. In assay [1], the “potency against N. fowleri, in words” value is given as “nanomolar potency”.

Take `CN(C/C=C/C#CC(C)(C)C)Cc1cccc2ccccc12` [Terbinafine]: the IC50 in assay [1] (Naegleria fowleri) is 0.79 ± 0.7 µM; in assay [2] (A549, 72 h, read-out: A549 Mean IC50 (µM)), greater than 10 µM. Besides, the “Selectivity Index” value is recorded as no less than 12.7 in assay [1] and no less than 10 in assay [1] (listed as terbinafine). In addition, the “potency against N. fowleri, in words” value in assay [1] is listed as “nanomolar potency”.
